Laboratory results taken from patent US20130303378A1, “Biocide Compositions Comprising Esters Of Ethoxylated Alcohols” (priority 2010, published 2013).

What was measured:
barley powdery mildew [1] = experiment: Protective greenhouse trial with Amistar (Azoxystrobin SC 250) plus adjuvant against barley powdery mildew; format: in vivo, barley powdery mildew on barley; details: azoxystrobin 5 g/ha, adjuvant 50 ml/ha, leaf segments cut 5 h after application, incubation 10 d after inoculation
Experimental: Opus SC125, a commercial available pesticide sold by BASF, was tested to control barley powdery mildew (BPM) in a curative greenhouse trial, Azoxystrobin SC 250 in a protective trial. In each case, barley was cultivated in a substrate “Frustorder Erde” for three weeks. Each treatment was replicated 14 times. The adjuvant dose rate in each treatment was 50 ml/ha. 5 h after application with the equivalent of 5 g/ha azoxystrobin, leaf segments were cut off at a length of 7 cm from the stem. The leaves of the F and F-1 leaf were placed on agar. After the inoculation, the incubation time was 10 d. The assessment of the infection rate was conducted by a trained biologist.

barley powdery mildew [2] = experiment: Performance in both trials together (curative Opus and protective Amistar); format: in vivo, barley powdery mildew on barley; details: for adjuvancy effect considering the performance in both trials: assessment in words, Opus and Amistar trials; for Sum of infection rates: sum of OPUS and AMISTAR infection rates
Experimental: Opus SC125, a commercial available pesticide sold by BASF, was tested to control barley powdery mildew (BPM) in a curative greenhouse trial, Azoxystrobin SC 250 in a protective trial. In each case, barley was cultivated in a substrate “Frustorder Erde” for three weeks. Each treatment was replicated 14 times. The adjuvant dose rate in each treatment was 50 ml/ha. Inoculation of the leaves with powdery mildew (Blumeria graminis f. sp. hordei) was done 2 days prior to application to test Opus' curative action. From the stem, leaf segments were cut off with a length of 10 cm using the flag leaf (F) and 2nd leaf (F-1). Altogether, the leaves of each stem were placed on benzimidazol agar i.e. 0.5% Agar with 40 ppm benzimidazol. The concentration of Opus for the leaf application was 10 g/ha. […] The assessment of the infection rate was conducted by a trained biologist. 5 h after application with the equivalent of 5 g/ha azoxystrobin, leaf segments were cut off at a length of 7 cm from the stem. The leaves of the F and F-1 leaf were placed on agar. After the inoculation, the incubation time was 10 d. The assessment of the infection rate was conducted by a trained biologist.

[3] = system: barley powdery mildew (Blumeria graminis f. sp. hordei); experiment: Curative greenhouse trial with Opus SC125 plus adjuvant against barley powdery mildew; format: in vivo, Blumeria graminis f. sp. hordei on barley; details: Opus 10 g/ha, adjuvant 50 ml/ha, inoculation 2 days prior to application, assessment 14 DAT, mildew pustules per leaf
Experimental: Opus SC125, a commercial available pesticide sold by BASF, was tested to control barley powdery mildew (BPM) in a curative greenhouse trial, Azoxystrobin SC 250 in a protective trial. In each case, barley was cultivated in a substrate “Frustorder Erde” for three weeks. Each treatment was replicated 14 times. The adjuvant dose rate in each treatment was 50 ml/ha.
Inoculation of the leaves with powdery mildew (Blumeria graminis f. sp. hordei) was done 2 days prior to application to test Opus' curative action. From the stem, leaf segments were cut off with a length of 10 cm using the flag leaf (F) and 2nd leaf (F-1). Altogether, the leaves of each stem were placed on benzimidazol agar i.e. 0.5% Agar with 40 ppm benzimidazol. The concentration of Opus for the leaf application was 10 g/ha. Assessment 14 days after treatment (14 DAT) of the efficacy against powdery mildew was done by counting the mildew pustules per leaf on a length of 7 cm. The assessment of the infection rate was conducted by a trained biologist.

Substance	Infection rate of barley powdery mildew after treatment with fungicides, AMISTAR (barley powdery mildew [1]) [%]	adjuvancy effect considering the performance in both trials (barley powdery mildew [2])	Sum of infection rates (barley powdery mildew [2]) [%]	Infection rate of barley powdery mildew after treatment with fungicides, OPUS [3] [%]
Isoamyl + 20EO oleate [Example 1]	0	best adjuvancy effect	7	7
Isodecyl + 6EO-C8/10 Ester [Example C1]	5	–	26	21
Decyl + 10EO-C8/10 Ester [Example 4]	0	–	22	22
Isoamyl + 20EO laurate [Example 2]	0	–	12	12
Decyl + 20EO-C8/10 Ester [Example 5]	12	–	23	11
Isoamyl + 5EO oleate [Example C5]	17	does not give acceptable results	34	17
C12/14 + 20EO-C8/10 Ester [Example C4]	18	–	33	15
C12/14 + 10EO-C8/10 Ester [Example C3]	2	–	31	29
Isoamyl + 10EO laurate [Example 3]	14	–	18	4
C12/14 + 5EO-C8/10 Ester [Example C2]	3	–	27	24
